Results from patent US12077503B2, “Substituted cyclic amides and their use as herbicides” (FMC CORPORATION, priority 2015, dated 2024).
Where two headings read alike, the source gives them in different places. Blank lines part the entries; values can stand above or below the compound they belong to.

Columns and labels:
[1] = tested on: Galium (catchweed bedstraw, Galium aparine); assay: Test A postemergence; type: in vivo; conditions: Galium, post-emergence, 240 h; for pest or weed control at 125 g/ha: 125 g ai/ha
In short: (§1)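 Compounds were formulated in a non-phytotoxic solvent mixture with surfactant and applied as a preemergence directed soil spray after seeding, or sprayed postemergence over plants 2 to 10 cm tall at the one- to two-leaf stage. Evaluation after about 10 d compared treated with untreated controls, using a scale from 0 (no effect) to 100 (complete control).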

[2] = tested on: barnyardgrass (Echinochloa crus-galli); assay: Test A postemergence; type: in vivo; conditions: Echinochloa crus-galli, post-emergence, 240 h; for pest or weed control at 125 g/ha: 125 g ai/ha; for pest or weed control at 500 g/ha: 500 g ai/ha, visual injury, approx. 10 d
In short: as §1

[3] = tested on: blackgrass (Alopecurus myosuroides); assay: Test A postemergence; type: in vivo; conditions: Alopecurus myosuroides, post-emergence, 240 h; for pest or weed control at 125 g/ha: 125 g ai/ha
In short: as §1

corn (Zea mays) = assay: Test A postemergence; type: in vivo; conditions: Zea mays, post-emergence, 240 h; for plant injury at 125 g/ha / Corn plant response rating (crop injury, 0 = no effect, 100 = complete kill) at 500 g/ha: Postemergence; for plant injury at 125 g/ha: visual rating about 10 d after treatment, read-out: Corn plant response rating (0 to 100 scale); for Corn plant response rating (crop injury, 0 = no effect, 100 = complete kill) at 500 g/ha: 500 g ai/ha, visual injury, approx. 10 d
In short: as §1

[4] = tested on: ragweed (common ragweed, Ambrosia elatior); assay: Test A postemergence; type: in vivo; conditions: Ambrosia artemisiifolia, post-emergence, 240 h; for pest or weed control at 125 g/ha: 125 g ai/ha
In short: as §1

[5] = tested on: wheat (Triticum aestivum); assay: Test A postemergence; type: in vivo; conditions: Triticum aestivum, post-emergence, 240 h; for plant injury at 125 g/ha: 125 g ai/ha; for plant injury at 500 g/ha: 500 g ai/ha, visual injury, approx. 10 d
In short: as §1

[6] = Postemergence, visual rating about 10 d after treatment, read-out: Barnyardgrass plant response rating (0 to 100 scale, 0 no effect, 100 complete control)
[7] = Postemergence, 0 to 100 scale (0 no effect, 100 complete control), read-out: Plant response rating, Barnyardgrass
[8] = 0 to 100 scale (0 no effect, 100 complete control)
[9] = Postemergence, visual rating about 10 d after treatment, read-out: Wheat plant response rating (0 to 100 scale)
[10] = Postemergence, 0 to 100 scale (0 no effect, 100 complete control), read-out: Plant response rating, Wheat

melting point: 133.9 to 140.7 °C
Compound: CN1C[C@H](c2nccs2)[C@@H](C(=O)Nc2cccc(F)c2F)C1=O [Compound 774]
pest or weed control at 125 g/ha ([1]; postemergence, visual injury after approximately 10 d, 0 to 100 scale (0 no effect, 100 complete control), read-out: Plant response rating, Galium): 0% | pest or weed control at 125 g/ha ([2]; postemergence, visual injury after approximately 10 d, 0 to 100 scale (0 no effect, 100 complete control), read-out: Plant response rating, Barnyardgrass): 0% | pest or weed control at 125 g/ha ([3]; postemergence, visual injury after approximately 10 d, 0 to 100 scale (0 no effect, 100 complete control), read-out: Plant response rating, Blackgrass): 0% | Corn plant response rating (crop injury, 0 = no effect, 100 = complete kill) at 125 g/ha (corn (Zea mays); 125 g ai/ha, postemergence, visual injury after approximately 10 d, 0 to 100 scale (0 no effect, 100 complete control)): 0% | pest or weed control at 125 g/ha ([4]; postemergence, visual injury after approximately 10 d, 0 to 100 scale (0 no effect, 100 complete control), read-out: Plant response rating, Ragweed): 0% | plant injury at 125 g/ha ([5]; postemergence, visual injury after approximately 10 d, 0 to 100 scale (0 no effect, 100 complete control), read-out: Plant response rating, Wheat): 0%

melting point: 186 to 188 °C
Compound: N#Cc1ccc(NC(=O)C2C(=O)NCC2c2ccccc2)cc1 (centres unmarked) [Compound 1355]
pest or weed control at 125 g/ha [2, 6]: 0% | pest or weed control at 500 g/ha [2, 7]: 0% | plant injury at 125 g/ha (corn (Zea mays); 125 g ai/ha): 0% | Corn plant response rating (crop injury, 0 = no effect, 100 = complete kill) at 500 g/ha (corn (Zea mays); [8]): 0% | plant injury at 125 g/ha [5, 9]: 0% | plant injury at 500 g/ha [5, 10]: 0%

melting point: 180 to 181 °C
Compound: O=C1NCC(c2ccccc2)C1C(=O)Nc1ccccc1 (centres unmarked) [Compound 1358]
pest or weed control at 125 g/ha [2, 6]: 0% | pest or weed control at 500 g/ha [2, 7]: 0% | plant injury at 125 g/ha (corn (Zea mays); 125 g ai/ha): 0% | Corn plant response rating (crop injury, 0 = no effect, 100 = complete kill) at 500 g/ha (corn (Zea mays); [8]): 0% | plant injury at 125 g/ha [5, 9]: 0% | plant injury at 500 g/ha [5, 10]: 0%

melting point: 188.1 to 192.4 °C
Compound: CN1C[C@H](c2ccc(C(F)(F)F)nc2)[C@@H](C(=O)Nc2cccc(F)c2F)C1=O [Compound 1372]
pest or weed control at 125 g/ha ([1]; Postemergence, visual rating about 10 d after treatment, read-out: Galium plant response rating (0 to 100 scale)): 60% | pest or weed control at 500 g/ha ([1]; Postemergence, 500 g ai/ha, visual injury, 0 to 100 scale (0 no effect, 100 complete control), approx. 10 d, read-out: Plant response rating, Galium): 70% | pest or weed control at 125 g/ha ([3]; Postemergence, visual rating about 10 d after treatment, read-out: Blackgrass plant response rating (0 to 100 scale)): 50% | pest or weed control at 500 g/ha ([3]; Postemergence, 500 g ai/ha, visual injury, 0 to 100 scale (0 no effect, 100 complete control), approx. 10 d, read-out: Plant response rating, Blackgrass): 70% | plant injury at 125 g/ha (corn (Zea mays); 125 g ai/ha): 70% | Corn plant response rating (crop injury, 0 = no effect, 100 = complete kill) at 500 g/ha (corn (Zea mays); [8]): 90% | pest or weed control at 125 g/ha ([4]; Postemergence, visual rating about 10 d after treatment, read-out: Ragweed plant response rating (0 to 100 scale)): 60% | pest or weed control at 500 g/ha ([4]; Postemergence, 500 g ai/ha, visual injury, 0 to 100 scale (0 no effect, 100 complete control), approx. 10 d, read-out: Plant response rating, Ragweed): 60% | plant injury at 125 g/ha [5, 9]: 70% | plant injury at 500 g/ha [5, 10]: 90%
